Experimental data: patent US7205382B2, “Peptides, the production and use thereof for binding immunoglobulins” (Fresenius Medical Care Affina GmbH, priority 2000, dated 2007)
Bridge positions count the residues as written; N and C are the ends. Square brackets hold non-standard residues; d marks the D form. Ends that are not written are not given here. cellulose = not defined here; βAla = NCCC(=O)O

Legend:
Format in all cases: binding
Set-up in all cases: key: No binding of immunoglobulin for the defined peptide variant, detection negative: 0; Binding of immunoglobulin for the defined peptide variant, detection positive: +
[1] = tested on: immunoglobulins in human plasma; assay: Cellulose-immobilized 13-mer peptide variants incubated with human plasma, anti-human IgG-AP detection; details: human plasma as sample, diluted 1:10,000 in blocking buffer, 3 h room temperature
In short: (§1)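 Binding is scored by NBT/BCIP precipitate from an AP-conjugated anti-human IgG probe on membrane-synthesized peptides. Targets are applied for 3 h at room temperature in 4% BSA/5% saccharose block: IgG-Fc at 1 μg/ml, serum at 1:10,000.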

serum albumin = assay: Cellulose-immobilized 13-mer peptide variants incubated with serum albumin (negative control), anti-human IgG-AP detection; details: blocking buffer without addition, 3 h room temperature
In short: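 Read-out was colorimetric NBT/BCIP staining (developing buffer pH 9.5) after alkaline phosphatase-conjugated anti-human IgG at 1.2 μg/ml. Before this, the immobilized peptides had been incubated 3 h at room temperature with 1 μg/ml IgG-Fc, 1:10,000 diluted serum, or albumin-containing blocking buffer without addition.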

human IgG-Fc = assay: Cellulose-immobilized 13-mer peptide variants incubated with human IgG-Fc, anti-human IgG-AP detection; details: IgG-Fc 1 μg/ml in blocking buffer, 3 h room temperature
In short: as §1

Substance	Result for incubation with human plasma (immunoglobulin binding detection) [1]	Result for incubation with serum albumin (immunoglobulin binding detection) (serum albumin)	Result for incubation with human IgG-Fc (immunoglobulin binding detection) (human IgG-Fc)
12F: cellulose-bound 13-mer variant DCAWHLGELVWFT-(βA)(βA) (DCAWHLGELVWFT-{βAla-βAla-cellulose}; not fully specified; printed as DCAWHLGELVWFT-(βA)(βA); reading uncertain)	0	0	0
01P: cellulose-bound 13-mer variant PCAWHLGELVWCT-(βA)(βA) (PCAWHLGELVWCT-{βAla-βAla-cellulose}; disulfide 2-12 (inferred); reading uncertain; also: printed as PCAWHLGELVWCT-(βA)(βA))	0	0	+
02N: cellulose-bound 13-mer variant DNAWHLGELVWCT-(βA)(βA) (DNAWHLGELVWCT[βAla][βAla]; not fully specified; printed as DNAWHLGELVWCT-(βA)(βA); also: cellulose-bound)	0	0	0
02M: cellulose-bound 13-mer variant DMAWHLGELVWCT-(βA)(βA) (DMAWHLGELVWCT[βAla][βAla]; not fully specified; printed as DMAWHLGELVWCT-(βA)(βA); also: cellulose-bound)	0	0	0
01R: cellulose-bound 13-mer variant RCAWHLGELVWCT-(βA)(βA) (RCAWHLGELVWCT-{βAla-βAla-cellulose}; disulfide 2-12 (inferred); reading uncertain; also: printed as RCAWHLGELVWCT-(βA)(βA))	0	0	+
01A: cellulose-bound 13-mer variant ACAWHLGELVWCT-(βA)(βA) (ACAWHLGELVWCT-{βAla-βAla-cellulose}; disulfide 2-12 (inferred); reading uncertain; also: printed as ACAWHLGELVWCT-(βA)(βA))	+	0	+
04P: cellulose-bound 13-mer variant DCAPHLGELVWCT-(βA)(βA) (disulfide 2-12 (inferred); not fully specified (N-terminus, C-terminus); printed as DCAPHLGELVWCT-(βA)(βA); also: cellulose-bound)	0	0	0
02G: cellulose-bound 13-mer variant DGAWHLGELVWCT-(βA)(βA) (DGAWHLGELVWCT[βAla][βAla]; not fully specified; printed as DGAWHLGELVWCT-(βA)(βA); also: cellulose-bound)	0	0	0
02R: cellulose-bound 13-mer variant DRAWHLGELVWCT-(βA)(βA) (DRAWHLGELVWCT[βAla][βAla]; not fully specified; printed as DRAWHLGELVWCT-(βA)(βA); also: cellulose-bound)	0	0	0
08F: cellulose-bound 13-mer variant DCAWHLGFLVWCT-(βA)(βA) (DCAWHLGFLVWCT-{βAla-βAla-cellulose}; disulfide 2-12 (inferred); not fully specified (N-terminus); printed as DCAWHLGFLVWCT-(βA)(βA); reading uncertain)	0	0	0
01H: cellulose-bound 13-mer variant HCAWHLGELVWCT-(βA)(βA) (HCAWHLGELVWCT-{βAla-βAla-cellulose}; disulfide 2-12 (inferred); reading uncertain; also: printed as HCAWHLGELVWCT-(βA)(βA))	0	0	+
10C: cellulose-bound 13-mer variant DCAWHLGELCWCT-(βA)(βA) (DCAWHLGELCWCT-{βAla-βAla-cellulose}; not fully specified (bridges); printed as DCAWHLGELCWCT-(βA)(βA); cysteine pairing not given here; reading uncertain)	0	0	0
08R: cellulose-bound 13-mer variant DCAWHLGRLVWCT-(βA)(βA) (DCAWHLGRLVWCT-{βAla-βAla-cellulose}; disulfide 2-12 (inferred); reading uncertain; also: printed as DCAWHLGRLVWCT-(βA)(βA))	+	0	+
05M: cellulose-bound 13-mer variant DCAWMLGELVWCT-(βA)(βA) (disulfide 2-12 (inferred); not fully specified (N-terminus, C-terminus); printed as DCAWMLGELVWCT-(βA)(βA); also: cellulose-bound)	0	0	0
11E: cellulose-bound 13-mer variant DCAWHLGELVECT-(βA)(βA) (DCAWHLGELVECT-{βAla-βAla-cellulose}; disulfide 2-12 (inferred); reading uncertain; also: printed as DCAWHLGELVECT-(βA)(βA))	0	0	0
06G: cellulose-bound 13-mer variant DCAWHGGELVWCT-(βA)(βA) (DCAWHGGELVWCT[βAla][βAla]; disulfide 2-12 (inferred); not fully specified (N-terminus); printed as DCAWHGGELVWCT-(βA)(βA); also: cellulose-bound)	+	0	+
06N: cellulose-bound 13-mer variant DCAWHNGELVWCT-(βA)(βA) (DCAWHNGELVWCT-{βAla-βAla-cellulose}; disulfide 2-12 (inferred); not fully specified (N-terminus); printed as DCAWHNGELVWCT-(βA)(βA); reading uncertain)	+	0	+
10K: cellulose-bound 13-mer variant DCAWHLGELKWCT-(βA)(βA) (DCAWHLGELKWCT-{βAla-βAla-cellulose}; disulfide 2-12 (inferred); reading uncertain; also: printed as DCAWHLGELKWCT-(βA)(βA))	0	0	0
04R: cellulose-bound 13-mer variant DCARHLGELVWCT-(βA)(βA) (disulfide 2-12 (inferred); not fully specified (N-terminus, C-terminus); printed as DCARHLGELVWCT-(βA)(βA); also: cellulose-bound)	+	0	+
